Each structure is given as a SMILES string.

From PMC6407204, “Oral administration of the cannabigerol derivative VCE-003.2 promotes subventricular zone neurogenesis and protects against mutant huntingtin-induced neurodegeneration” (Translational Neurodegeneration, 2019) come the findings set out here.

The subject of this assay is mutant huntingtin-induced neurodegeneration. Briefly: Viral model of Huntington's disease, AAV expression of mutant huntingtin (AAV-htt94Q) in mouse striatum. Format: in vivo, C57BL/6 N mice. Particulars: 10 mg/kg/day oral. As to the method:
Male C57BL/6 N mice (10 weeks old) were housed under standard conditions (12-h light/dark cycle) in groups with access to food and water ad libitum. All experiments were performed in accordance with European Union guidelines and approved by the Animal Research Ethics Committee of Complutense and Córdoba University. Procedures were designed to minimize the number of animals used and their suffering. Constructs expressing CFP-tagged human huntingtin exon 1 harboring a pathogenic polyQ tract of 94 CAG repeats or a normal, non-pathogenic polyQ tract of 16 CAG repeats (kindly provided by Dr. José J. Lucas, Severo Ochoa Molecular Biology Center, Madrid, Spain) were employed using an AAV1/AAV2 mixed serotype, generated by polyethyleneimine transfection of HEK293T cells and subsequent purification in iodixanol gradient. Vectors were injected stereotactically (in 3 μl PBS) into the dorsal striatum in a bilateral manner at coordinates (mm to bregma): antero-posterior + 0.5, lateral ±2.5, dorso-ventral − 3.5 as previously described. VCE-003.2 (10 mg/kg) or vehicle (sesame oil) were orally administered once daily (Fig. 1), and for neurogenesis experiments BrdU (100 mg/kg) was administered i.p. twice daily on the first week after viral injection. RotaRod test was conducted prior to drug injections to avoid acute effects of the compounds under investigation. RotaRod started at 4 rpm, with an acceleration rate of 6 rpm/min until either maximum speed is reached or the mouse falls from the apparatus. Maximum time assay was 10 min. Basal RotaRod performance was determined 6 days prior to striatal injury in 3 consecutive days with 3 trials/day (30 min of rest between each trial), and groups with equivalent motor function were assigned. RotaRod test was performed during 3 consecutive days prior to sacrifice and plasma was obtained for peripheral biomarker analyses. All experiments included a minimum of 6 mice per condition. The precise number of animals analyzed in each experiment is indicated in the corresponding figure legends.
Free floating coronal brain slices (30 μm) were processed as previously described. In brief, after blocking with 10% goat serum, brain sections were incubated with the indicated primary antibodies followed by secondary antibody incubation (2 h at room temperature). The appropriate mouse, rat and rabbit highly cross-adsorbed AlexaFluor 488, AlexaFluor 594 and AlexaFluor 647 secondary antibodies (1:500; Molecular Probes, Leyden, The Netherlands) were used. Samples were subsequently incubated with DAPI (1:5000, Roche) for 10 min, washed with PBS and mounted in Mowiol. All immunofluorescence data were obtained in a blinded manner by independent observers in a minimum of 6 correlative slices, from 1-in-10 series located between − 0.4 to + 1.6 mm to bregma. The lateral SVZ zone was delineated by using DAPI-counterstained cell nuclei, and analyses were performed in the upper dorsal tier, in which positively-labelled cells and immunoreactivity were quantified not beyond 100 μm of the SVZ. Confocal fluorescence images were acquired by using LAS-X software (Wetzlar, Germany) and SP8 microscope with 2 passes by Kalman filter, a 1024X1024 collection box, and pinhole AU 1. […] Cells were quantified within a 20 × 20 μm counting frame, which randomly sampled within a 122.8 × 68.9 μm counting grid. Cells that contacted the lateral or upper exclusion plane were excluded. The total number of cells counted was divided by the number of sampled counting frames and multiplied by its size to obtain the density of positive cells. Co-localization was confirmed by orthogonal projection of 18 z-stack files (1-μm each), and data were expressed as cells/mm^2. […]

The mark [1] stands for this setting: AAV-htt16Q and AAV-htt94Q mice, 30 days.
Where [2] appears, read: AAV-htt94Q mice, 4 weeks after lesion.

Turning to `CCCCCC1=C(NCC)C(=O)C(CC=C(C)CCC=C(C)C)=C(O)C1=O` [VCE-003.2, 2-(3,7-dimethyl-octa-2,6-dienyl)-6-ethylamino-3-hydroxy-5-pentyl-(1,4) benzoquinone], under setting [1], the “doublecortin-positive neuroblasts in striatum” value was “increased doublecortin-expressing cells” and the “effective neurogenesis, double-positive NeuN/BrdU neurons” value is “effective in promoting neurogenesis”. Under setting [2], the “Ascl1-positive transit amplifying progenitors” value is recorded as “further promoted Ascl1-positive cell expansion” and the “proliferating SVZ neural stem cells, GFAP/Ki-67 double-labelled” value was “increased the number of proliferating GFAP-positive cells”. Besides, the “motor performance, RotaRod latency to fall” value (AAV-htt94Q mice, 14 days, vs vehicle) is “performed better in the RotaRod test”. Moreover, the “MSN degeneration, DARPP-32 and NeuN immunofluorescence” value (AAV-htt94Q mice, 30 days after lesion) is listed as “prevented htt94Q-induced MSN degeneration”. Besides, where the note is “AAV-htt94Q mice, vs vehicle”, the “microglial activation, Iba1 immunoreactivity” value is “reduced microglial activation”.
